This note sets out measurements from patent publication US11021470B2, “2-substituted quinazoline compounds comprising a substituted heterocyclic group and methods of use thereof” (Araxes Pharma LLC, priority 2015, dated 2021).

The first test concerns the target T1, KRAS G12C 1-169, his-tagged protein, GDP-loaded (Homo sapiens, UniProt P01116, G12C).
T1 construct: KRAS G12C 1-169, his-tagged protein, GDP-loaded
Briefly: KRAS G12C covalent binding (% modification) by mass spectrometry, ten or three minute incubation. Conditions: covalent binding to KRAS G12C after a ten minute incubation period. Here is the method:
Test compounds were prepared as 10 mM stock solutions in DMSO (Fisher cat #BP-231-100). KRAS G12C 1-169, his-tagged protein, GDP-loaded was diluted to […] in buffer (20 mM Hepes, 150 mM NaCl, 1 mM MgCl2). Compounds were tested for activity as follows:
Compounds were diluted to 50× final test concentration in DMSO in 96-well storage plates. Compound stock solutions were vortexed before use and observed carefully for any sign of precipitation. Dilutions were as follow: • For 100 μM final compound concentration, compounds were diluted to 5000 μM (5 μl 10 mM compound stock+5 μl DMSO and mixed well by pipetting. • For 30 μM final compound concentration, compounds were diluted to 1500 μM (3 μl 10 mM compound stock+17 μl DMSO) and mixed well by pipetting. • For 10 μM final compound concentration, compounds were diluted to 500 μM (2 μl 10 mM compound stock+38 μl DMSO) and mixed well by pipetting. 49 μl of the stock protein solution was added to each well of a 96-well PCR plate (Fisher cat #1423027). 1 μl of the diluted 50× compounds were added to appropriate wells in the PCR plate using 12-channel pipettor. Reactions were mixed carefully and thoroughly by pipetting up/down with a 200 μl multi-channel pipettor. […] 5 μl of 2% formic acid (Fisher cat #A117) in DI H2O was then added to each well followed by mixing with a pipette. The plate was then resealed with aluminum seal and stored on dry ice until analyzed as described below.
The above described assays were analyzed by mass spectrometry according to one of the following two procedures:
The MS instrument is set to positive polarity, 2 GHz resolution, and low mass (1700) mode and allowed to equilibrate for 30 minutes. The instrument is then calibrated, switched to acquisition mode and the appropriate method loaded.
After another 30 minute equilibration time, a blank batch (i.e., buffer) is run to ensure equipment is operating properly. The samples are thawed at 37° C. for 10 minutes, briefly centrifuged, and transfer to the bench top. Wells A1 and H12 are spiked with 1 μL 500 μM internal standard peptide, and the plates centrifuged at 2000×g for 5 minutes. The method is then run and masses of each individual well recorded.
The masses (for which integration data is desired) for each well are pasted into the platemap and exported from the analysis. Masses for the internal standards are exported as well. The data at 50 ppm is extracted for the +19 charge state, and identity of well A1 is assigned using the internal standard spike and integrated. Peak data is exported as a TOF list and the above steps are repeated individually, for the +20, 21, 22, 23, 24, and 25 charge states.
The masses and peak intensities of KRAS G12C protein species were measured using a Dionex RSLCnano system (Thermo Scientific) connected to a Q Exactive Plus mass spectrometer (Thermo Scientific).
[…] of sample was each loaded onto a Aeris™ 3.6 μm WIDEPORE C4 200 Å, LC Column 50×2.1 mm column maintained at 40° C. at a flow rate of 600 μl min^−1 with […] (0.1% formic acid in acetonitrile). The liquid chromatography conditions were 20% solvent B for 1 min, 20% to 60% solvent B for 1.5 min, 60% to 90% solvent for 0.5 min, 90% solvent B for 0.2 min, 90% to 20% solvent B for 0.2 min, and then equilibrated for 1.6 min before the following sample injection. The flow rate was maintained at 600 μl min^−1 throughout the sample analysis.
The mass spectrometer was operated in profile mode at a resolution of 17500, 5 microscans, using 50 msec max injection time and an AGC target of 1e6, and a full mass range from 800-1850 m/z was recorded. The HCD trapping gas was optimized for maximum sensitivity for intact proteins. The ionization method was electrospray ionization, which used a spray voltage of 4 kV, sheath gas flow set to 50 au, auxiliary gas flow set to 10 au and sweep gas flow set to 1 au. […]
As to `C=CC(=O)N1C[C@H](C)N(c2nc(N3CC(N(C)C)C3)nc3c(F)c(-c4c(O)cccc4F)c(Cl)cc23)C[C@H]1C` [Compound 24, 1-((2R,5S)-4-(6-chloro-2-(3-(dimethylamino)azetidin-1-yl)-8-fluoro-7-(2-fluoro-6-hydroxyphenyl)quinazolin-4-yl)-2,5-dimethylpiperazin-1-yl)prop-2-en-1-one], the Binding % result is given as “++ (++ indicates binding activity from 50 to 90%)”.
Same read-out and setting: under `C=CC(=O)N1C[C@H](C)N(c2nc(OCCN3CC(F)(F)C3)nc3c(F)c(-c4c(O)cccc4F)c(Cl)cc23)C[C@H]1C` (atropisomer, axis not shown) [Compound 84, 1-((2R,5S)-4-((S)-6-chloro-2-(2-(3,3-difluoroazetidin-1-yl)ethoxy)-8-fluoro-7-(2-fluoro-6-hydroxyphenyl)quinazolin-4-yl)-2,5-dimethylpiperazin-1-yl)prop-2-en-1-one] stands “+++ (+++ indicates binding activity greater than 90%)”; under `C=CC(=O)N1CCN(c2nc(N3CC(N(C)C)C3)nc3c(F)c(-c4c(O)cccc4F)c(Cl)cc23)C[C@@H]1C` [Compound 82, 1-((2S)-4-(6-chloro-2-(3-(dimethylamino)azetidin-1-yl)-8-fluoro-7-(2-fluoro-6-hydroxyphenyl)quinazolin-4-yl)-2-methylpiperazin-1-yl)prop-2-en-1-one], “++ (++ indicates binding activity from 50 to 90%)”.
As for `C=CC(=O)N1CCN(c2nc(N3CC(N(C)C)C3)nc3c(F)c(-c4c(O)cccc4F)c(Cl)cc23)C[C@H]1C` (atropisomer, axis not shown) [Compound 61, 1-((R)-4-((R)-6-chloro-2-(3-(dimethylamino)azetidin-1-yl)-8-fluoro-7-(2-fluoro-6-hydroxyphenyl)quinazolin-4-yl)-2-methylpiperazin-1-yl)prop-2-en-1-one], the Binding % result is reported as “++ (++ indicates binding activity from 50 to 90%)”.

Still in this test, the particulars now being: covalent binding to KRAS G12C, % modification after a three minute incubation period.
For `C=CC(=O)N1C[C@H](C)N(c2nc(N3CC(N(C)C)C3)nc3c(F)c(-c4c(C)ccc5[nH]ncc45)c(Cl)cc23)C[C@H]1C` (atropisomer, axis not shown) [Compound 130, 1-((2R,5S)-4-(6-chloro-2-(3-(dimethylamino)azetidin-1-yl)-8-fluoro-7-((R)-5-methyl-1H-indazol-4-yl)quinazolin-4-yl)-2,5-dimethylpiperazin-1-yl)prop-2-en-1-one], the Binding % result is recorded as “+++ (+++ indicates binding activity greater than 90%)”.
Take `C=CC(=O)N1C[C@H](C)N(c2nc(N3CC(N(C)C)C3)nc3c(F)c(-c4c[nH]c5ccccc45)c(Cl)cc23)C[C@H]1C` [Compound 285, 1-((2R,5S)-4-(6-chloro-2-(3-(dimethylamino)azetidin-1-yl)-8-fluoro-7-(1H-indol-3-yl)quinazolin-4-yl)-2,5-dimethylpiperazin-1-yl)prop-2-en-1-one]: the Binding % result was “+ (+ indicates binding activity greater than 0% and up to 50%)”.
For the compound `C=CC(=O)N1C[C@H](C)N(c2nc(OCCn3ccc4cccnc43)nc3c(F)c(-c4c(O)cccc4F)c(Cl)cc23)C[C@H]1C` [Compound 263, 1-((2R,5S)-4-(2-(2-(1H-pyrrolo[2,3-b]pyridin-1-yl)ethoxy)-6-chloro-8-fluoro-7-(2-fluoro-6-hydroxyphenyl)quinazolin-4-yl)-2,5-dimethylpiperazin-1-yl)prop-2-en-1-one], the Binding % result was “+ (+ indicates binding activity greater than 0% and up to 50%)”.
The same measure, in the same setting: with `C=CC(=O)N1C[C@H](C)N(c2nc(N3CC(N(C)C)C3)nc3c(F)c(-c4cc(O)cc5ccccc45)c(C(F)(F)F)cc23)C[C@H]1C` (atropisomer, axis not shown) [Compound 256, 1-((2R,5S)-4-(2-(3-(dimethylamino)azetidin-1-yl)-8-fluoro-7-((S)-3-hydroxynaphthalen-1-yl)-6-(trifluoromethyl)quinazolin-4-yl)-2,5-dimethylpiperazin-1-yl)prop-2-en-1-one] the entry was “+ (+ indicates binding activity greater than 0% and up to 50%)”.
On the same count and under the same terms, with `C=CC(=O)N1C[C@H](C)N(c2nc(OCCn3ccnc3)nc3c(F)c(-c4c(O)cccc4F)c(Cl)cc23)C[C@H]1C` (atropisomer, axis not shown) [Compound 249, 1-((2R,5S)-4-(2-(2-(1H-imidazol-1-yl)ethoxy)-6-chloro-8-fluoro-7-((S)-2-fluoro-6-hydroxyphenyl)quinazolin-4-yl)-2,5-dimethylpiperazin-1-yl)prop-2-en-1-one] the entry was “+++ (+++ indicates binding activity greater than 90%)”.
For the compound `C=CC(=O)N1C[C@H](C)N(c2nc(OCCc3ncc(N(C)C)cn3)nc3c(F)c(-c4c(O)cccc4F)c(Cl)cc23)C[C@H]1C` (atropisomer, axis not shown) [Compound 258, 1-((2R,5S)-4-(6-chloro-2-(2-(5-(dimethylamino)pyrimidin-2-yl)ethoxy)-8-fluoro-7-((S)-2-fluoro-6-hydroxyphenyl)quinazolin-4-yl)-2,5-dimethylpiperazin-1-yl)prop-2-en-1-one], the Binding % entry was “+++ (+++ indicates binding activity greater than 90%)”.
On the same count and under the same terms, with `C=CC(=O)N1C[C@H](C)N(c2nc(OCCn3cnnc3)nc3c(F)c(-c4c(O)cccc4F)c(Cl)cc23)C[C@H]1C` (atropisomer, axis not shown) [Compound 280, 1-((2R,5S)-4-(2-(2-(4H-1,2,4-triazol-4-yl)ethoxy)-6-chloro-8-fluoro-7-((S)-2-fluoro-6-hydroxyphenyl)quinazolin-4-yl)-2,5-dimethylpiperazin-1-yl)prop-2-en-1-one] the entry was “+++ (+++ indicates binding activity greater than 90%)”; with `C=CC(=O)N1C[C@H](C)N(c2nc(N3CC(N(C)C)C3)nc3c(F)c(-c4c(C)ccc5c(C)n[nH]c45)c(Cl)cc23)C[C@H]1C` [Compound 246, 1-((2R,5S)-4-(6-chloro-7-(3,6-dimethyl-1H-indazol-7-yl)-2-(3-(dimethylamino)azetidin-1-yl)-8-fluoroquinazolin-4-yl)-2,5-dimethylpiperazin-1-yl)prop-2-en-1-one], “+ (+ indicates binding activity greater than 0% and up to 50%)”; with `C=CC(=O)N1C[C@H](C)N(c2nc(N3CC(N(C)C)C3)nc3c(F)c(-c4c(C)ccc5[nH]nc(CO)c45)c(Cl)cc23)C[C@H]1C` [Compound 299, 1-((2R,5S)-4-(6-chloro-2-(3-(dimethylamino)azetidin-1-yl)-8-fluoro-7-(3-(hydroxymethyl)-5-methyl-1H-indazol-4-yl)quinazolin-4-yl)-2,5-dimethylpiperazin-1-yl)prop-2-en-1-one], “++ (++ indicates binding activity from 50 to 90%)”.
In the case of `C=CC(=O)N1C[C@H](C)N(c2nc(OCCn3ccnc3C#N)nc3c(F)c(-c4c(O)cccc4F)c(Cl)cc23)C[C@H]1C` (atropisomer, axis not shown) [Compound 278, 1-(2-(4-((2S,5R)-4-acryloyl-2,5-dimethylpiperazin-1-yl)-6-chloro-8-fluoro-7-((S)-2-fluoro-6-hydroxyphenyl)quinazolin-2-yloxy)ethyl)-1H-imidazole-2-carbonitrile], the Binding % entry was “++ (++ indicates binding activity from 50 to 90%)”.
With `C=CC(=O)N1C[C@H](C)N(c2nc(N3CC(N(C)C)C3)nc3c(F)c(-c4c(C)ccc5[nH]nc(C)c45)c(Cl)cc23)C[C@H]1C` [Compound 252, 1-((2R,5S)-4-(6-chloro-7-(3,5-dimethyl-1H-indazol-4-yl)-2-(3-(dimethylamino)azetidin-1-yl)-8-fluoroquinazolin-4-yl)-2,5-dimethylpiperazin-1-yl)prop-2-en-1-one], the Binding % result is reported as “+++ (+++ indicates binding activity greater than 90%)”.
